Values of other authors as cited in US8540972B2, “Sunscreen product comprising hydroxyapatite as physical filter” (Kalichem Italia S.R.L., priority 2009, dated 2013).

Tested on: HeLa cells

Q: Which “fate of HeLa cells after UV irradiation in the presence of the substance” value does the source give for titanium dioxide [TiO2] here?
A: Its value is “die”.
